# Source: ChEMBL document CHEMBL1201862, “PubChem BioAssay data set” (2004)
# The source made the active and inactive calls.
# Key:
# [1] = A Cell Based Secondary Assay To Explore Cytotoxicity of Compounds that Sensitize Mycobacterium Tuberculosis to Beta-Lactam Antibiotics.; format: functional
# [2] = blockade of melanocortin 4 receptor signaling – cell-based, plate reader, cherry pick, counter-screen for LGR2 antagonist project, dose response (AID 743444); format: functional;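 further: transfected HEK 293 cells stimulated with alpha-MSH peptide; potency of inhibitors of the alpha-MSH evoked signal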
# [3] = A549 cell cytotoxicity, dose response, cytotoxicity control, plate reader, cherry-pick, antagonist series (AID 743412); format: functional, cell-based
# Paired box protein Pax-8 = Paired box protein Pax-8 (Homo sapiens, UniProt Q06710); test: PAX8 transcriptional activity inhibition in RMG-I – RMG-I cells, luciferase, cherry-pick, dose response (AID 687027); format: functional, cell-based;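 further: luciferase reporter driven by Pax8 target thyroperoxidase promoter measured by SteadyGlo luminescence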
# Chain of Paired box protein Pax-8 (Q06710 whole entry): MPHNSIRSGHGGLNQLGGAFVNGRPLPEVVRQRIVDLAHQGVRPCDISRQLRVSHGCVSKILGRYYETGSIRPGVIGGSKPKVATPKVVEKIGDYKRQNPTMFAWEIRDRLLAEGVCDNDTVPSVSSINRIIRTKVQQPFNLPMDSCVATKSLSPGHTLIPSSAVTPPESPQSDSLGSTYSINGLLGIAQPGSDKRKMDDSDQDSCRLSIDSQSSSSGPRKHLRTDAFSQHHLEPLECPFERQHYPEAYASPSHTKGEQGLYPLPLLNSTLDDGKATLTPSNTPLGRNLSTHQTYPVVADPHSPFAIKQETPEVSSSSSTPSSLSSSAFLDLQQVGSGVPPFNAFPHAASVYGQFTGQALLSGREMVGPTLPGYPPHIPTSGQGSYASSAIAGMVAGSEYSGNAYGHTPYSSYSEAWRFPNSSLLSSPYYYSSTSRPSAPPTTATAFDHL
# [4] = blockers of bursicon-stimulated LGR2 cAMP reporter – cell-based, HEK293, CRE-luciferase reporter, cherry pick, set 2, dose response (AID 743343); format: functional;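 further: transfected cells were stimulated with diluted bursicon conditioned medium after compound addition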
# [5] = viability loss in HEK293 cells – cell-based, plate reader, cherry-picked samples, cytotoxicity control, dose response (AID 743446); format: functional
# [6] = Luminescence-based counterscreen assay for KLF5 inhibitors: dose response cell-based high throughput screening assay to identify cytotoxic compounds using the IEC-6 intestinal epithelial cell line. [Related pubchem assays: 1700 (Primary screen.), 1834 (Confirmation screen.), 1858 (Summary AID.), 1905 (Counterscreen.)]; format: functional
# [7] = microbe, parasite or virus in culture; format: functional; details: Mycobacterium tuberculosis
# [8] = general cell-killing toxicity readout – plate reader, dry powder samples, cytotoxicity control for PAX8 inhibitor project, dose response (AID 743021); format: functional, cell-based
# HEK293 = test: EBV LMP1 TES2 canonical NF-kB signalling blockers – cell-based, HEK293, luciferase, cherry-pick, dose response (AID 588343); format: functional; details: Homo sapiens
# [9] = toxicity toward HepG2 liver cells – cell-based, plate reader, cherry-pick, antagonist series, cytotoxicity control, dose response (AID 743416); format: functional
# [10] = HEK-293T cell viability reduction – luminescence, B-cell screen hits, cytotoxicity control for BCR NF-kB inhibitor project, dose response (AID 489021); format: functional, cell-based;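 further: HEK-293T cells carrying an NF-kB luciferase reporter; cells exposed to compound for about 14 hours before viability readout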
# [11] = target: T1, Heat shock factor protein 1 (Mus musculus, UniProt P38532); test: decrease of HSF1-responsive luciferase luminescence – cell-based, NIH3T3, dose retest, confirmation (AID 2382); format: functional;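 further: NIH3T3 fibroblasts with HSF1-driven luciferase reporter stressed by proteasome inhibitor MG132; luminescence from HSF1-driven luciferase expression after 8 hours of MG132 stress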
# T1 sequence (P38532 whole entry): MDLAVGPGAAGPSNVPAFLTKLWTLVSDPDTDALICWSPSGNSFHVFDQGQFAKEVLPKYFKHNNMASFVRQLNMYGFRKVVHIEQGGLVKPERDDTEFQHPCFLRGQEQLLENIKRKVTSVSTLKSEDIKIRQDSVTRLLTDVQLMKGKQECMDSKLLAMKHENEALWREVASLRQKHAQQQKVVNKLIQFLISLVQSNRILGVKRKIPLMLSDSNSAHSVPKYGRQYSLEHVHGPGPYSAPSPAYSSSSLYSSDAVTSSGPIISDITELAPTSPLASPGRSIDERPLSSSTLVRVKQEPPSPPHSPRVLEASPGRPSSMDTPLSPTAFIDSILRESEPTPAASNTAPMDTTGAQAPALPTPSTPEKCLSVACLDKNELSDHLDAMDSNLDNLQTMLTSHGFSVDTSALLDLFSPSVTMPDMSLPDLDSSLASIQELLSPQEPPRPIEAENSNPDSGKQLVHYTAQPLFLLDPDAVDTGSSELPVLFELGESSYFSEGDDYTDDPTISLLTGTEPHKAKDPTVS
# [12] = CMV-driven luciferase expression suppression in HEK293 – cell-based, luminescence, dry powder, counter-screen for Pax8 inhibitor project, dose response (AID 743020); format: functional
# [13] = target: T2, Apoptotic protease-activating factor 1 (Homo sapiens, UniProt O14727); format: functional
# T2 sequence (O14727 whole entry): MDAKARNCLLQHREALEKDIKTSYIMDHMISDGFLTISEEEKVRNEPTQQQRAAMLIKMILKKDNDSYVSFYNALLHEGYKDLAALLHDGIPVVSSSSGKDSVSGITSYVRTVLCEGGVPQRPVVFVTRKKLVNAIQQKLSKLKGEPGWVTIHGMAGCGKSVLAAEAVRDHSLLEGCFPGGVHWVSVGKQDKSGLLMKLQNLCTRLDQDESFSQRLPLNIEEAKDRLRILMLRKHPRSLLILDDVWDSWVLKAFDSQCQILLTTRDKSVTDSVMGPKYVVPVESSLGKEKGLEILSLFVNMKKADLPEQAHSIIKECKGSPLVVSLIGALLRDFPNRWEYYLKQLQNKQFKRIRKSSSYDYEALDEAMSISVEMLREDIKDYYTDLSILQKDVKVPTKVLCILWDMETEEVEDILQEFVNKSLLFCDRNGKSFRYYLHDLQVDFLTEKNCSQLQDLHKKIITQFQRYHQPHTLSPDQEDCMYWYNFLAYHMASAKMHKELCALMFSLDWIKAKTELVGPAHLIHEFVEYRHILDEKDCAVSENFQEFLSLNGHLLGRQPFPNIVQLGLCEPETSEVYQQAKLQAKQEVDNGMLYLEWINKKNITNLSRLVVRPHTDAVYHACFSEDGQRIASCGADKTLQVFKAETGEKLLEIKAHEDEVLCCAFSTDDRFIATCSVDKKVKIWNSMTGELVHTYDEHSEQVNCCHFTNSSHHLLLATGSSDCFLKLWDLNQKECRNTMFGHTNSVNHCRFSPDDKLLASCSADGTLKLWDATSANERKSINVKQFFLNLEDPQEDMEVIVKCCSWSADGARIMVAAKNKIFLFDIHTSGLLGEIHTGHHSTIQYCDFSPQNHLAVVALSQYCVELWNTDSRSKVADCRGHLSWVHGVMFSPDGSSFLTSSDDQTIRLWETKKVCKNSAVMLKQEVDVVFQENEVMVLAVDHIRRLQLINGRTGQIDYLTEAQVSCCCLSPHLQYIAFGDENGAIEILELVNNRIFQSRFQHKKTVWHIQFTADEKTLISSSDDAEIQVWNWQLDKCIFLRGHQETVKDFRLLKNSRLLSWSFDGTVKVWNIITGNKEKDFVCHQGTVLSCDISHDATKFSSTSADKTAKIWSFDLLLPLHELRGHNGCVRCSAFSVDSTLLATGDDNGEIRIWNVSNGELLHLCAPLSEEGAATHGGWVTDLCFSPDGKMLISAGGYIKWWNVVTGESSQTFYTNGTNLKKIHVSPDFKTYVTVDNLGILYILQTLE
# [14] = HPDE-C7 pancreatic duct cell viability loss – fluorescence, HTS (AID 430); format: functional, cell-based; details: Homo sapiens
# [15] = target: T3, Aryl hydrocarbon receptor (Homo sapiens, UniProt P35869); details: Potency;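 further: confirmatory quantitative high-throughput screen measuring activation of the AhR signaling pathway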
# T3 sequence (P35869 whole entry): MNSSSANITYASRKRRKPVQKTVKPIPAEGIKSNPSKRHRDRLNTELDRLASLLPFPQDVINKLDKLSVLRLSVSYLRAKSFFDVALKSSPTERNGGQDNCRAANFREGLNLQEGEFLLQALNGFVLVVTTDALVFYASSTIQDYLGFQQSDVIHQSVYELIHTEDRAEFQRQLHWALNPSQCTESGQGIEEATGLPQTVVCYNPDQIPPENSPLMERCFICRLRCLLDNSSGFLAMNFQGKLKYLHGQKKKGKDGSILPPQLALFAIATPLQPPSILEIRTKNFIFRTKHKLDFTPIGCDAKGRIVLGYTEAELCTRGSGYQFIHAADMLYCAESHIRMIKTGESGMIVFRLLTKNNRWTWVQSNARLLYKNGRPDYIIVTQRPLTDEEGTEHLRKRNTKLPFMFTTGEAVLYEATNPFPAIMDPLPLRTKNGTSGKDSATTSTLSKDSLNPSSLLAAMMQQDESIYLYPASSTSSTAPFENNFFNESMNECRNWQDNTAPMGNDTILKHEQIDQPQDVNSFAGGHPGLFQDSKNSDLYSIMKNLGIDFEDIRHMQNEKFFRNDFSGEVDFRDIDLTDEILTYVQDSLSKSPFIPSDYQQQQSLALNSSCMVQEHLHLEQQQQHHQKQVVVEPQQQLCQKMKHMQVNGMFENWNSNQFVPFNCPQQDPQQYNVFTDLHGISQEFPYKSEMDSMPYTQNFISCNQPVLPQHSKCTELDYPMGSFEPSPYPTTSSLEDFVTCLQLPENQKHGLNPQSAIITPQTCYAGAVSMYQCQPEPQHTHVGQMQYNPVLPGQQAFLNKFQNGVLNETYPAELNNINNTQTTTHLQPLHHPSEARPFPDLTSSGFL
# [16] = Potency on glucagon-like peptide 1 release, dose-response in NCI-H716 cell line, half maximal inhibitory concentration (AID 1117344); format: functional, cell-based
# [17] = glucagon-like peptide-1 release potency in STC-1, concentration-response, half-maximal inhibitory concentration in the STC-1 line (AID 1117345); format: functional, cell-based
# [18] = target: T4, Ubiquitin-conjugating enzyme E2 N (Homo sapiens, UniProt P61088); format: functional;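 further: Dose-response confirmation in a TR-FRET assay detecting UBC13-driven polyubiquitin chain formation, inhibition measured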
# T4 sequence (P61088 whole entry): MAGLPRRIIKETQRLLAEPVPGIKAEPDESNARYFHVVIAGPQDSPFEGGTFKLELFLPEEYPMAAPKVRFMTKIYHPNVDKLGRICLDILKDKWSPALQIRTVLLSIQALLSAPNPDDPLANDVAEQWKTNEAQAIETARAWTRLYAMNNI
# [19] = viability loss of HPDE-C7K cells – cell-based, fluorescence, HTS, primary screen (AID 431); format: functional; details: Homo sapiens
# [20] = target: Heat shock protein HSP 90-alpha (Homo sapiens, UniProt P07900); format: functional, organism-based
# [21] = target: T5, Neuropeptide Y receptor type 2 (Homo sapiens, UniProt P49146); format: functional, cell-based;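 further: HEK293 cells expressing the receptor and a CNG channel; stimulus was NPY near EC95 followed by isoproterenol to raise cAMP; antagonist potency measured as restoring cAMP signal that NPY suppresses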
# T5 sequence (P49146 whole entry): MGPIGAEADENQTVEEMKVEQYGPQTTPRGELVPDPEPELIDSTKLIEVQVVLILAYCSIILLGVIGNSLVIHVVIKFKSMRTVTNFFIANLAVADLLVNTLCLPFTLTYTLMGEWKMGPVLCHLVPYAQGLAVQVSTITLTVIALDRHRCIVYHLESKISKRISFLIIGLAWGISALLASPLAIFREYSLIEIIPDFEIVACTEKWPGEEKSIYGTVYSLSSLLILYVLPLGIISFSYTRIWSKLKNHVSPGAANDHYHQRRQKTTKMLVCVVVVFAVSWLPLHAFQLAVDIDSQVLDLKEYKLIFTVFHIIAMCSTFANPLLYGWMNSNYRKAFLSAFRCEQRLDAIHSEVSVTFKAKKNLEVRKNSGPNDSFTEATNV
smiles,measurement,setting,value
CC(C)CC(=O)N1CCN(c2ccc([N+](=O)[O-])c(NCc3ccccc3)c2)CC1,CC50,[1],> 40 µM (active)
COc1ccc(OCc2cccc(C(=O)Nn3cc([N+](=O)[O-])cn3)c2)cc1,AC50,[2],0.462 µM (active)
same,AC50,[3],> 52 µM (inactive)
same,AC50,Paired box protein Pax-8,1.13 µM (active)
same,AC50,[4],0.407 µM (active)
same,AC50,[5],> 52 µM (inactive)
same,IC50,[6],> 39.8 µM (not active)
same,CC50,[7],> 40 µM (active)
same,AC50,[8],10.1 µM (active)
same,AC50,HEK293,0.709 µM (active)
same,AC50,[9],34.1 µM (active)
same,IC50,[10],> 80 µM (inactive)
same,EC50,[11],4.92 µM (active)
same,AC50,[12],21 µM (active)
Cc1nn(-c2ccccc2)c(O)c1/C=N/NC(=O)c1cccc([N+](=O)[O-])c1,CC50,[1],7.57 µM (active)
same,IC50,[13],13.2 µM (active)
Clc1ccc(COC(Cn2ccnc2)c2ccc(Cl)cc2Cl)cc1 (centres undefined) [ECONAZOLE NITRATE],EC50,[14],15.9 µM (active)
same,AC50,[15],56.2 µM (inconclusive)
same,IC50,[16],25.6 µM (inactive)
same,IC50,[17],4.29 µM (active)
same,IC50,[18],> 20 µM (inactive)
same,EC50,[19],15.4 µM (active)
same,AC50,[20],0.267 µM (active)
same,IC50,[21],8.02 µM (active)
